By IC50 is commonly meant the concentration that inhibits the measured activity by half.

We go through one compound from BindingDB's records for doi:10.1021/jm800355c (Saarland University, 2008).

The experiment has as its target T1, Cytochrome P450 11B1, mitochondrial (Homo sapiens, UniProt P15538).
T1 sequence (P15538 whole entry): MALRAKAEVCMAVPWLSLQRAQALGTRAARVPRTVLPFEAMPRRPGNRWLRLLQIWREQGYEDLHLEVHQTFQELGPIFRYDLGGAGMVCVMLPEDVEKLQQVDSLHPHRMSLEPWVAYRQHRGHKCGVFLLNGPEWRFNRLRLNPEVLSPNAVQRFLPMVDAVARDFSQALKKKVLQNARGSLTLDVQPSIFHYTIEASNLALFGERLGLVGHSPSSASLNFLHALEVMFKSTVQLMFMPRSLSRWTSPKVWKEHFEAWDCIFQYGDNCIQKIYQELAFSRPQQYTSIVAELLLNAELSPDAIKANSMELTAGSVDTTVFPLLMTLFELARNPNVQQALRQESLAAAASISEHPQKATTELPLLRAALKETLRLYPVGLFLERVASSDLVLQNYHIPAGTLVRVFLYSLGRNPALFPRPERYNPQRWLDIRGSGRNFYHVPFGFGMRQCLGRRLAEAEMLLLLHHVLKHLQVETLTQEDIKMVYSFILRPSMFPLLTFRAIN
As to the kind of experiment: CYP11B1 Inhibition Assay. As for the experimental part: The enzyme activity was assayed by monitoring the conversion of deoxycorticosterone to corticosterone in the presence of inhibitor compounds. The product formation was monitored by HPTLC using a phosphoimager system.

`C[C@]12CC[C@H](O)CC1=CC[C@@H]1[C@@H]2CC[C@]2(C)C(c3cccnc3)=CC[C@@H]12` [ABT] returned an IC50 of 1.61 µM.
